Experimental data taken from patent publication US12090225B2 (Avalyn Pharma Inc., priority 2018, dated 2024).
Like-named read-outs stand apart in the source and are kept apart here.

Key:
[1] = Pattern stability screen of potential salts (40° C./75% RH, XRPD); assay type: physicochemical
Protocol: XRPD analysis was carried out on a PANalytical X'pert pro, scanning the samples between 3 and 35° 20. The material was gently compressed and loaded onto a multi-well plate with Kapton or Mylar polymer film to support the sample.
Primary Salt Screening. […] The solvent systems shown in Table were selected for salt screening. For sulfonic acids MEK was used instead of methanol and acetone:water 50:50 (v/v) was used instead of IPA:water to avoid any potential genotoxic impurities. Ca. […] If the acid was insoluble in the selected solvent, a slurry was used. If the acid was a liquid it was added to the API slurry from a stock solution in the allocated solvent. The mixtures of API/counterion/solvent were temperature cycled between ambient and 40° C. in 4 hour cycles for ca. 3 days. Any solids present were isolated and allowed to dry at ambient conditions, for ca. 30 minutes prior to analysis by XRPD. Where solutions were obtained they were evaporated to obtain solid material.

[2] = Aqueous solubility assessment of salts; assay type: physicochemical
[3] = Human inhaled dose projection vs Ofev 150 mg oral; conditions: 0.42 mg inhaled vs Ofev 150 mg oral
[4] = Apparent solubility of nintedanib HBr laboratory scale batches; assay type: physicochemical
Description: During this process, a new polymorphic form was identified (pattern X)

[5] = Inhaled pharmacokinetics of nintedanib salt forms (intratracheal); assay type: in vivo, C57BL/6 mice; conditions: C57BL/6 mice; for AUC 0-last / Elimination half-life (alpha-phase): 1.0 mg/kg IT; for Cmax: 1.0 mg/kg IT (base equivalent)
[6] = Dynamic Vapour Sorption (DVS) hygroscopicity; assay type: physicochemical; conditions: for DVS mass uptake at 90% RH: 25° C., uptake from input material; for Hygroscopicity: DVS
Protocol: Dynamic Vapour Sorption (DVS). Approximately, 10 mg of sample was placed into a mesh vapour sorption balance pan and loaded into a DVS-1 or DVS Advantage dynamic vapour sorption balance by Surface Measurement Systems. The sample was subjected to a ramping profile from 40-90% relative humidity (RH) at 10% increments, maintaining the sample at each step until a stable weight had been achieved (dm/dt 0.004%, minimum step length 30 minutes, maximum step length 500 minutes) at 25° C. After completion of the sorption cycle, the sample was dried using the same procedure to 0% RH and then a second sorption cycle back to 40% RH. Two cycles were performed. The weight change during the sorption/desorption cycles were plotted, allowing for the hygroscopic nature of the sample to be determined. XRPD analysis was then carried out on any solid retained.

[7] = 7 day stability testing of salts (40° C./75% RH, 80° C., ambient light; HPLC purity, XRPD); assay type: physicochemical; conditions: for XRPD pattern after 7 day stability testing: listed as phosphate salt
Protocol: High Performance Liquid Chromatography-Ultraviolet Detection (HPLC-UV): Instrument: Dionex Ultimate 3000; Column: Acquity CSH C18 100 mm×2.1 mm 1.7 μm; Column Temperature: 50° C.; Autosampler Temperature: Ambient; UV wavelength: 210 nm; Injection Volume: 4 μL; Flow Rate: 0.6 mL/min; Mobile Phase A: 0.1% formic acid in water; Mobile Phase B: 0.1% formic acid in acetonitrile. The HPLC method used the gradient in Table 2.
FT-IR appeared to be consistent with the structure. […] The material was physically stable to changes in temperature and humidity when stored for one week.
A new, poorly crystalline pattern was produced when stored at 40° C./75% RH—Pattern 4.
Purity of these materials remained unchanged (as shown in Table) apart from the sample stored at ambient light, where a 0.5% drop in purity was observed.

[8] = Disproportionation/hydration studies (pH, XRPD pattern); assay type: physicochemical
Description: No XRPD data could be compiled on the hydration or disproportionation of the salt due to the high solubility in water and acetone/water mixtures.
The salt only remained Pattern 1 at 0.3 aw. New patterns 6 and 7 are likely hydrated due to the high water activity conditions for production.

[9] = Inhaled pharmacokinetics of fixed combination nintedanib esylate and pirfenidone; assay type: in vivo, C57BL/6 mice; conditions: 10.0 mg/kg each IT; for half-life: read-out: Elimination half-life (alpha-phase)
Protocol: Plasma and lung tissue samples were taken 2, 5, 10, 20, 40 min and 1, 2, and 4 hours post dose. Nintedanib was extracted and quantitated as μg/mL plasma and μg/gram lung tissue.

[10] = Water Activity 0.3 (acetone/water)
[11] = Water Activity 0.6 (acetone/water)
[12] = Water Activity 0.9 (acetone/water)
[13] = female, C57BL/6, mouse, inhaled or intranasal, Lung (whole lung homogenate)
[14] = female, C57BL/6, mouse, inhaled or intranasal, Plasma

In the case of `CC(=O)O` [Acetate], the “XRPD pattern after 72 hrs 40° C./75% RH” value ([1]; Initial pattern 1) is reported as 1(FB) and the “XRPD pattern after 72 hrs 40° C./75% RH” value ([1]; Initial pattern 2) is reported as 1.

For `N[C@@H](CC(=O)O)C(=O)O` [L-Aspartic acid], the “XRPD pattern after 72 hrs 40° C./75% RH” value ([1]; Initial pattern 1) was 1.

In the case of `O=C(O)/C=C/C(=O)O` [Fumarate], the “pH (aqueous solubility measurement)” value ([2]; primary screen samples) is reported as 6.41, the “XRPD pattern after 72 hrs 40° C./75% RH” value ([1]; Initial pattern 1) is reported as 1 and the “XRPD pattern after 72 hrs 40° C./75% RH” value ([1]; Initial pattern 2) is reported as 2(MU).

With Maleic acid the “XRPD pattern after 72 hrs 40° C./75% RH” value ([1]; Initial pattern 1) was 1 and the “XRPD pattern after 72 hrs 40° C./75% RH” value ([1]; Initial pattern 2) was 2.

In the case of `COC(=O)c1ccc2c(c1)NC(=O)/C2=C(\Nc1ccc(N(C)C(=O)CN2CCN(C)CC2)cc1)c1ccccc1` [Inhaled nintedanib], the “% Pharmacokinetics (inhaled compared to oral), AUC” value ([3]; lung) is reported as 1047%, the “% Pharmacokinetics (inhaled compared to oral), Cmax” value ([3]; lung) is reported as 2600% and the “% Pharmacokinetics (inhaled compared to oral), AUC” value ([3]; plasma) is reported as 100%. The “% Pharmacokinetics (inhaled compared to oral), Cmax” value ([3]; plasma) was 83%.

For `Br.COC(=O)c1ccc2c(c1)NC(=O)C2=C(Nc1ccc(N(C)C(=O)CN2CCN(C)CC2)cc1)c1ccccc1` [AP152], the “Apparent Solubility” value [4] was 1.95 mg/mL.

In the case of `COC(=O)c1ccc2c(c1)NC(=O)/C2=C(\Nc1ccc(N(C)C(=O)CN2CCN(C)CC2)cc1)c1ccccc1.Cl` [Nintedanib chloride], the “AUC 0-last” value ([5]; lung (whole lung homogenate)) is reported as 60.1 mg·h/kg, the “Elimination half-life (alpha-phase)” value ([5]; lung (whole lung homogenate)) is reported as 3.9 min and the Cmax ([5]; plasma) is reported as 0.4 µg/mL. The “AUC 0-last” value ([5]; plasma) was 0.2 mg·h/L and the “Elimination half-life (alpha-phase)” value ([5]; plasma) was 1.7 min.

For `Br.COC(=O)c1ccc2c(c1)NC(=O)C2=C(Nc1ccc(N(C)C(=O)CN2CCN(C)CC2)cc1)c1ccccc1` [AP177w], the “Apparent Solubility” value [4] was 1.03 mg/mL.

In the case of `O=S(=O)(O)O` [Sulfuric acid], the “XRPD pattern after 72 hrs 40° C./75% RH” value ([1]; Initial pattern 1) is reported as 1, the “XRPD pattern after 72 hrs 40° C./75% RH” value ([1]; Initial pattern 2) is reported as 1 and the “XRPD pattern after 72 hrs 40° C./75% RH” value ([1]; Initial pattern 3) is reported as 3. The “XRPD pattern after 72 hrs 40° C./75% RH” value ([1]; Initial pattern 4) was 3.

In the case of `Br.COC(=O)c1ccc2c(c1)NC(=O)/C2=C(\Nc1ccc(N(C)C(=O)CN2CCN(C)CC2)cc1)c1ccccc1` [Nintedanib bromide], the “AUC 0-last” value ([5]; lung (whole lung homogenate)) is reported as 51.2 mg·h/kg, the “Elimination half-life (alpha-phase)” value ([5]; lung (whole lung homogenate)) is reported as 4.1 min and the Cmax ([5]; plasma) is reported as 0.2 µg/mL. For the same molecule, the “AUC 0-last” value ([5]; plasma) was 0.2 mg·h/L and the “Elimination half-life (alpha-phase)” value ([5]; plasma) was 2.4 min.

In the case of `COC(=O)c1ccc2c(c1)NC(=O)/C2=C(\Nc1ccc(N(C)C(=O)CN2CCN(C)CC2)cc1)c1ccccc1.O=P(O)(O)O.O=P(O)(O)O` [Phosphate], the “DVS mass uptake at 90% RH” value [6] is reported as “further 10.6% uptake up”, the “DVS mass uptake at 90% RH” value ([6]; listed as phosphate salt) is reported as “ca. 10.6%” and the Hygroscopicity [6] is reported as “Hygroscopic”. The Hygroscopicity ([6]; listed as phosphate salt) was “hygroscopic”, the “Purity (%)” value ([7]; 40° C./75% RH, 7 day stability testing) was 99.8% and the “XRPD pattern after 7 day stability testing” value ([7]; 40° C./75% RH) was “Pattern 4”. The “XRPD pattern after 7 day stability testing” value ([7]; 80° C. and ambient conditions/light) was “remain Pattern 3”, the “Purity (%)” value ([7]; 80° C., 7 day stability testing) was 99.2% and the “Purity (%)” value ([7]; Ambient, 7 day stability testing) was 99.6%. For the same molecule, the “Purity (%)” value ([7]; Input) was 99.9%, the “pH at 6 h” value ([2]; salt in water, after agitation) was 3.00 and the “pH at 18 h” value ([2]; salt in water, after agitation) was 2.11. For the same molecule, the “Initial pH” value ([2]; salt in water, solubility assessment) was 3.43, the “pH Post-Agitation” value [8, 10] was 2.68 and the “pH Pre-Agitation” value [8, 10] was 3.08. The “pH Post-Agitation” value [8, 11] was 2.52, the “pH Pre-Agitation” value [8, 11] was 2.60 and the “pH Post-Agitation” value [8, 12] was 2.35. The “pH Pre-Agitation” value [8, 12] was 2.34, the “pH Post-Agitation” value ([8]; Water Activity 1.0 (water)) was 1.78 and the “pH Pre-Agitation” value ([8]; Water Activity 1.0 (water)) was 2.75. The “XRPD pattern after 72 hrs 40° C./75% RH” value ([1]; Initial pattern 1) was 1 and the “XRPD pattern after 72 hrs 40° C./75% RH” value ([1]; Initial pattern 2) was 2.

With `COC(=O)c1ccc2c(c1)NC(=O)/C2=C(\Nc1ccc(N(C)C(=O)CN2CCN(C)CC2)cc1)c1ccccc1.CS(=O)(=O)O` [MSA] the “XRPD pattern after 72 hrs 40° C./75% RH” value ([1]; Initial pattern 1) was 1 and the “XRPD pattern after 72 hrs 40° C./75% RH” value ([1]; Initial pattern 2) was 1.

In the case of `COC(=O)c1ccc2c(c1)NC(=O)/C2=C(\Nc1ccc(N(C)C(=O)CN2CCN(C)CC2)cc1)c1ccccc1.O=S(=O)(O)CCO` [HESA], the “XRPD pattern after 72 hrs 40° C./75% RH” value ([1]; Initial pattern 1) is reported as 2 and the “XRPD pattern after 72 hrs 40° C./75% RH” value ([1]; Initial pattern 2) is reported as 2.

For `Br.COC(=O)c1ccc2c(c1)NC(=O)C2=C(Nc1ccc(N(C)C(=O)CN2CCN(C)CC2)cc1)c1ccccc1` [AP018], the “Apparent Solubility” value [4] was 2.04 mg/mL.

In the case of `Br.COC(=O)c1ccc2c(c1)NC(=O)C2=C(Nc1ccc(N(C)C(=O)CN2CCN(C)CC2)cc1)c1ccccc1` [AP178w], the “Apparent Solubility” value [4] is reported as 1.01 mg/mL.

With `Br.COC(=O)c1ccc2c(c1)NC(=O)C2=C(Nc1ccc(N(C)C(=O)CN2CCN(C)CC2)cc1)c1ccccc1` [AP177d] the “Apparent Solubility” value [4] was 2.05 mg/mL.

In the case of `Cc1ccc(=O)n(-c2ccccc2)c1` [Pirfenidone], the “AUC 0-last” value ([9]; Lung (whole lung homogenate)) is reported as 5.2 mg·h/kg, the Cmax [9, 13] is reported as 279000 ng/g and the half-life [9, 13] is reported as 0.7 min. It also gave an AUC(0-t) [9, 14] of 3800 ng·h/mL, a Cmax [9, 14] of 7900 ng/mL and a half-life [9, 14] of 8.9 min.

With `Br.COC(=O)c1ccc2c(c1)NC(=O)C2=C(Nc1ccc(N(C)C(=O)CN2CCN(C)CC2)cc1)c1ccccc1` [AP036] the “Apparent Solubility” value [4] was 0.97 mg/mL.

For `Br.COC(=O)c1ccc2c(c1)NC(=O)/C2=C(\Nc1ccc(N(C)C(=O)CN2CCN(C)CC2)cc1)c1ccccc1` [AP143], the “Apparent Solubility” value [4] was 0.96 mg/mL.

In the case of `Br.COC(=O)c1ccc2c(c1)NC(=O)C2=C(Nc1ccc(N(C)C(=O)CN2CCN(C)CC2)cc1)c1ccccc1` [AP069], the “Apparent Solubility” value [4] is reported as 1.02 mg/mL.

In the case of `Br.COC(=O)c1ccc2c(c1)NC(=O)C2=C(Nc1ccc(N(C)C(=O)CN2CCN(C)CC2)cc1)c1ccccc1` [AP064], the “Apparent Solubility” value [4] is reported as 1.96 mg/mL.

For `Br.COC(=O)c1ccc2c(c1)NC(=O)C2=C(Nc1ccc(N(C)C(=O)CN2CCN(C)CC2)cc1)c1ccccc1` [AP178d], the “Apparent Solubility” value [4] was 1.94 mg/mL.

With Saccharin the “Solubility (aqueous)” value [2] was <0.625 mg/mL, the “pH (aqueous solubility measurement)” value [2] was 5.51 and the “XRPD pattern after 72 hrs 40° C./75% RH” value ([1]; Initial pattern 1) was 2. For the same molecule, the “XRPD pattern after 72 hrs 40° C./75% RH” value ([1]; Initial pattern 2) was 2.
